Reference: patent US5334595A, “Pyrazoloquinolones as anticancer agents” (priority 1992, dated 1994)

Tests used:
[1] = In vivo antitumor assay, B16(ip); parameters: species or system mice; details: mouse, in vivo, drug ip
From the text: (§1) Mice: Inbred: C3H/He and NCR-nu; and Hybrids: B6D2F1 (C57BL/6 females×DBA/2 males, CD2F1 (Balb/c females×DBS/2 males) and B6C3fl (C57BL/6×C3H) were bred at Wayne State University from strains obtained from the Frederick Cancer Research Facility, Frederick, Maryland or purchased from commercial suppliers.
(§2) Tumors: Murine Tumor: P388 and an adriamycin-resistant (ADR) subline P388/ADR leukemia and the following transplantable solid tumors of mice were used for in vivo testing: B16 melanoma (B16), pancreatic ductal adenocarcinoma No. 03 (Pane 03), colon adenocarcinoma No. 38 (colo 38), lung carcinoma No. 12 (LC 12), mammary ductal adenocarcinoma No. 16/C (Mam16C) and an adriamycin-resistant subline Mam16C/ADR. Human tumor: A single human tumor, mammary carcinoma MX-1 was used for in vivo testing. All tumors are in the Developmental Therapeutics Program frozen tumor respository, maintained by the Biological Testing Branch, Frederick Maryland. Each has a detailed description, code identification number, and list of references at the National Tumor Repository. Murine tumors were maintained in the mouse strain of origin and were transplanted in the appropriate F1 hydrid (or the strain of origin) for therapy trials. Human mammary carcinoma MX-1 (MX1) was maintained as a subcutaneous implant in either athymic Swiss (Cr: NIH(S)-nu) or athymic random bred (NCR-nu) mice and transplanted in NCR-nu for therapy trials.
(§3) For P388 and P388/ADR leukemia studies the tumor cells were implanted either interperitoneally (IP) or intravenously (IV) on day zero and treatment was started on day one. For B16 melanoma (B16) studies, the tumor cells were implanted IP on day zero and treatment was started on day one. Titered controls were also included to facilitate the calculation of tumor cell kill. For mammary carcinoma MX-1 studies, tumors were implanted with 1) subcutaneously (sc) (14-mg fragment of sc donor tumor) in the axillary region or 2) under the subrenal capsule (SRC) (10×10×10 ocular micrometer unit fragment of sc donor tumor).
(§4) Quantitative end points used to assess antitumor activity included % Increased Life Span (% ILS), Tumor Cell Kill (Log10 kill), and Tumor Growth Inhibition (T/C). Long Term Survivors (45 or 60 day) were excluded from calculations of %ILS and Tumor Cell Kill.
(§5) Endpoints were calculated as follows: [formula] where Dt is the median day of death for treated and Dc is the median day of death for control groups. A % ILS ≥20 or ≥25 for P388 and B16 intraperitoneal models, respectively, is indicative of a significant degree of antitumor activity. A % ILS ≥75 or ≥50 for P388 and B16 intraperitoneal models, , respectively, is indicative of a high degree of antitumor activity and is the level used by National Cancer Institute to justify further development if other requirements are met (termed DN-2 level activity). Minimum quantitative activity limits for additional P388 models (e.g. P388/ADR and P388, IV) have not been defined.

B16 melanoma (B16) = assay: In vivo antitumor assay, B16(ip); parameters: species or system mice; details: drug ip; for ILS %: qd 1,5,9, exp SD-17, at dose of MTD; for Log Kill: qd 1,5,9, exp SD-17, log10
From the text: as §1, §2, §3, §4, §5

[2] = test system: colon adenocarcinoma No. 38 (colo 38); assay: In vivo antitumor assay, Colo38(sc); parameters: species or system mice
From the text: as §1, §2
(§6) Chemotherapy: For pancreatic ductal adenocarcinoma No. 3, colon adenocarcinoma No. 38 (colo 38), lung carcinoma No. 12 LC 12) and both adriamycin-sensitive (RP) and-resistant (ADR) mammary ductal adenocarcinoma No. 16 (Mam16) tumors, bilateral tumor implants were used to help ensure a more uniform tumor burden per mouse (thus reducing the requirement for greater numbers of mice per group). The animals necessary to begin an experiment were pooled, implanted bilaterally s.c. on day zero with 30-60 mg tumor fragments using a 12-gauge trocar, and again pooled before randomization to the various treatment and control groups. Chemotherapy was started within three days after tumor implantation while the number of cells per mouse was relatively small (1×10^7 -1×10^8 cells).
as §4
(§7) Tumors were measured with a caliper once or twice weekly (as needed) until either tumors exceeded 1600 mg or cure was assured. Tumor weights were estimated from two-dimensional measurements: Tumor Weight (mg)=(a×b^2) / 2, where a and b are the tumor length and width (ram) respectively. Measurements were carried out simultaneously in both treatment and control groups. When the control group tumors reached approximately 750-1500 mg in size (median of group), the median tumor weight of each group was determined (including zeros). The T/C value in percent is an indication of antitumor effectiveness. The % T/C was calculated from the following formula for solid murine tumor models: [formula] where T and C are median tumor weights of the treatment and control groups, respectively. […] A T/C value <10% is indicative of a high degree of antitumor activity and is the level used by National Cancer Institute to justify further development if other requirements are met (termed DN-2 level activity). By convention the T/C value for the mammary carcinoma MX-1 models is calculated by the parameter of change in tumor weight .

[3] = In vivo antitumor assay, Colo38(sc); parameters: species or system mice; details: mouse, in vivo
From the text: as §1, §2, §6, §4, §7

mammary carcinoma MX-1 [4] = assay: In vivo antitumor assay, MXI(src); parameters: species or system mice; details: drug ip, qd 1,5,9, exp SD-18, change in tumor weight
From the text: as §1, §2, §3, §4
as §7, with “weight . The % T/C was calculated from the following formula for MX-1 models [formula] where ΔT and ΔC are the change in mean tumor weight of the test and control groups, respectively, and T (initial) is the initial mean tumor weight of the test group. […] A reproducible % T/C ≤10 is considered significant activity.” for “weight .”

[5] = In vivo antitumor assay, MXI(src); parameters: species or system mice; details: mouse, in vivo, drug ip
From the text: as §1, §2, §3, §4
as §7, with “weight . The % T/C was calculated from the following formula for MX-1 models [formula] where ΔT and ΔC are the change in mean tumor weight of the test and control groups, respectively, and T (initial) is the initial mean tumor weight of the test group. […] A reproducible % T/C ≤10 is considered significant activity.” for “weight .”

mammary carcinoma MX-1 [6] = assay: In vivo antitumor assay, MXI(sc); parameters: species or system human; details: drug ip, qd 1,5,9, exp SD-9, change in tumor weight
From the text: as §1, §2, §3, §4
as §7, with “weight . The % T/C was calculated from the following formula for MX-1 models [formula] where ΔT and ΔC are the change in mean tumor weight of the test and control groups, respectively, and T (initial) is the initial mean tumor weight of the test group. […] A reproducible % T/C ≤10 is considered significant activity.” for “weight .”

[7] = In vivo antitumor assay, MXI(sc); parameters: species or system human; details: mouse, in vivo, drug ip, qd 1,5,9, exp SD-9
From the text: as §1, §2, §3, §4
as §7, with “weight . The % T/C was calculated from the following formula for MX-1 models [formula] where ΔT and ΔC are the change in mean tumor weight of the test and control groups, respectively, and T (initial) is the initial mean tumor weight of the test group. […] A reproducible % T/C ≤10 is considered significant activity.” for “weight .”

[8] = qd 1,5,9, exp SD-17, MTD not achieved, maximum dose tested
[9] = drug iv,sc: iv, qd 3-9, sc, qd 11-19, exp 1163
[10] = drug iv, qd 3-4, bid 5,6,12-17, exp 1036
[11] = drug iv, sc, iv, qd 3-16, exp 1038

Row | Structure (SMILES) | MTD [1, 8] [mg/kg] | ILS % (B16 melanoma (B16)) [%] | Log Kill (B16 melanoma (B16)) | T/C % (mammary carcinoma MX-1 [4]) [%] | MTD ([5]; qd 1,5,9, exp SD-18) [mg/kg] | T/C % (mammary carcinoma MX-1 [6]) [%] | MTD [7] [mg/kg] | MTD ([1]; qd 1,5,9, exp SD-17) [mg/kg] | further results
1 | Cc1cc(-c2c(F)cc3c4nn([C@H]5CC[C@H](N(C)C)CC5)c(=O)c-4cn(C4CC4)c3c2F)cc(C)n1 [Example 51b] | > 99 | 47 | 1.0 | 2 | 99 | – | – | – | T/C % ([2]; drug iv, qd 3-4,15,17, bid 5.7, exp 1036): 13%; MTD ([3]; drug iv, qd 3-4,15,17, bid 5.7, exp 1036, MTD not achieved, maximum dose tested): > 220 mg/kg
2 | Cc1cc(-c2c(F)cc3c4nn([C@H]5CC[C@@H](N)CC5)c(=O)c-4cn(C4CC4)c3c2F)cc(C)n1 [Example 56a, 2-(Cis-4-Aminocyclohexyl)-5-cyclopropyl-6,8-difluoro-2,5-dihydro-7-(2,6-dimethyl-4-pyridinyl)-3H-pyrazolo-[4,3-c]quinolin-3-one] | – | – | – | – | – | – | – | – | T/C % [2, 9]: 40%; MTD [3, 9]: 137 mg/kg
3 | Cc1cc(-c2c(F)cc3c4nn(CCNCCO)c(=O)c-4cn(C4CC4)c3c2F)cc(C)n1 [Example 17] | – | 61 | 1.4 | – | – | 67 | 270 | 180 | –
4 | Cc1cc(-c2c(F)cc3c4nn([C@H]5CC[C@@H](N(C)C)CC5)c(=O)c-4cn(C4CC4)c3c2F)cc(C)n1 [Example 51a] | > 15 | 29 | 0.67 | 5 | – | – | – | – | T/C % [2, 10]: 39%; MTD [3, 10]: 63 mg/kg; MTD ([5]; qd 1,5,9, exp SD-18, MTD not achieved, maximum dose tested): > 23 mg/kg
5 | Cc1cc(-c2c(F)cc3c4nn(CCN(C)C)c(=O)c-4cn(C4CC4)c3c2F)cc(C)n1.O=C(O)/C=C/C(=O)O [Example 1, 5-Cyclopropyl-6,8-difluoro-2,5-dihydro-2-[2-(dimethylamino)-ethyl]-7-(2,6-dimethyl-4-pyridinyl)-3H-pyrazolo[4,3-c]quinolin-3-one (E)-2-butendioate (1:1)] | – | 85 | 1.9 | 6 | 52 | 37 | 78 | 78 | Log Kill ([2]; drug iv, qd 3,7,11, exp 1038): 0.60; T/C % ([2]; drug iv, qd 3,7,11, exp 1038): 14%; Log Kill [2, 11]: 1.2; T/C % [2, 11]: 0%; MTD ([3]; drug iv, qd 3,7,11, exp 1038): 78 mg/kg; MTD [3, 11]: 58 mg/kg
6 | Cc1cc(-c2c(F)cc3c4nn(CCCN(C)C)c(=O)c-4cn(C4CC4)c3c2F)cc(C)n1 [Example 14] | – | 58 | 1.3 | – | – | 53 | 42 | 28 | Log Kill ([2]; drug iv, qd 3,12-14, exp 905): 0.54; T/C % ([2]; drug iv, qd 3,12-14, exp 905): 38%; MTD ([3]; drug iv, qd 3,12-14, exp 905): 133 mg/kg
